Structures are written as SMILES.

Consider one compound from publication PMC5458052 (Nature Communications, 2017).

One data set deals with P. falciparum 3D7. The experiment in a line: In vitro antimalarial activity, drug sensitivity testing (3D7). Format: cell-based. To be noted: Plasmodium falciparum.
Data set [1] concerns P. falciparum lab lines FC27 and K1. The data set is described as follows: microbe, parasite or virus in culture. Type of data set: cell-based. As to conditions: Plasmodium falciparum, median of 3 independent experiments.
A short description of data set [2]: Human PK prediction by allometric scaling. To be noted: allometric scaling from rat parameters.
Data set [3] in a line: Metabolic stability and metabolite profile in mouse liver microsomes. Type of data set: in vitro ADME. In general terms: Microsomes from liver hold many membrane-bound enzymes, among them those of drug oxidation.
The next data set in a line: Mouse micronucleus test. As to conditions: in vivo.
The nature of data set [4]: In vitro intrinsic clearance, human liver microsomes (Chem Partners). Format: in vitro ADME. To be noted: human (H) liver microsomes.
The test system of data set [5] is African variant G6PD deficient human red blood cells (huRBC). To be noted: 7 days post-treatment; E209 up to 50 mg kg^−1 day^−1 for 3 days; PQ 25 mg/kg/day for 3 days.
Another data set can be described thus: in vivo. To be noted: rat, iv, 1 mg/kg.
In a further data set the target is CYP1A2 (Homo sapiens, UniProt P05177). The data set is described as follows: Cytochrome P450 inhibition CYP1A2.
For a further data set, the system named is P. berghei. The experiment in a line: Peters' standard 4-day suppressive test.

Chain of CYP1A2 (P05177 whole entry): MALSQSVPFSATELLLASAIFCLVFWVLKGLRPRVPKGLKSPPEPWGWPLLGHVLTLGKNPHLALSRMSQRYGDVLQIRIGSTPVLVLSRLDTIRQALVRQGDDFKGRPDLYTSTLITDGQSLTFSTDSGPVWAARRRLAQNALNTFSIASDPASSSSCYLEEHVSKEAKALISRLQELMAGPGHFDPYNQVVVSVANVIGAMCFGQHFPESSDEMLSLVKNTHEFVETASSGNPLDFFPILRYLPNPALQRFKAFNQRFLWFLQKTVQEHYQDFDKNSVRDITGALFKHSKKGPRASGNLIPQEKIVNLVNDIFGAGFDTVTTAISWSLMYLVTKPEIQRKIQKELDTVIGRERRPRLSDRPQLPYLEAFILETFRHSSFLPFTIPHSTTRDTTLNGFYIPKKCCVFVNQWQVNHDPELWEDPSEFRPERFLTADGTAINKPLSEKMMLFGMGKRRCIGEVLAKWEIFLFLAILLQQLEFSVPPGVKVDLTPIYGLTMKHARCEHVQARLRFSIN

Usually IC50 stands for the concentration that inhibits the measured activity by half. A lower IC50 goes with greater potency. As usually defined, the half-life is the time in which the quantity being followed falls by half. By CLint scaled is commonly meant a measure of how fast metabolising enzymes remove a compound, apart from limits set by blood flow. A lower CLint scaled goes with slow turnover. Consider `FC1CCN(CCOc2ccc(C3CCC4(CC3)OOC3(OO4)C4CC5CC(C4)CC3C5)cc2)CC1` (stereo not drawn) [Compound E209], for which the IC50 in the data set with P. falciparum 3D7 is 5.1 ± 0.81 nM; in [1] (K1, FC27 (CQ S) lab line), 20.7 nM; in data set [1] (K1, K1 (CQ R) lab line), 31.8 nM; against CYP1A2, over 20000 nM. In addition, the “Absorption rate constant Ka” value in data set [2] is 0.31 ^† h^−1. For the same compound, the “Central clearance, CL” value in data set [2] was 0.41 l^ h^−1 kg^−1. In [2], the “Inter-compartmental clearance 1, Q1” value is 7.5 mL/min/kg. In data set [2], the “Inter-compartmental clearance 2, Q2” value was 0.333 mL/min/kg. In addition, the “% Substrate Consumed” value in data set [3] (mouse liver microsomes with NADPH, 60 minutes) came out at 44%. The “Microsome-Predicted EH” value in [3] (mouse liver microsomes, substrate 1 µM) was 0.22; in [3] (mouse liver microsomes, substrate 5 µM), 0.25. For the same compound, the half-life at 1 µM in [3] (mouse liver microsomes, substrate 1 µM, read-out: Degradation half-life) worked out at 2.2 h. The microsomal CLint at 1 µM in data set [3] (mouse liver microsomes, substrate 1 µM, read-out: In vitro CLint) came out at 13 µL/min/mg. In addition, the half-life at 5 µM in data set [3] (mouse liver microsomes, substrate 5 µM, read-out: Degradation half-life) amounted to 2.48 h. Moreover, the microsomal CLint at 5 µM in [3] (mouse liver microsomes, substrate 5 µM, read-out: In vitro CLint) was 17 µL/min/mg. In addition, in the data set “Mouse micronucleus test”, the “mouse micronucleus test result” value is “negative”. This compound also returned a CLint scaled in data set [4] of 58 mL/min/kg. In data set [5], the “loss of huRBC” value is listed as “did not show a significant drug-dependent loss of huRBC”. In the data set “in vivo”, this compound gave a half-life of 4 h. For the same compound, the parasite clearance entry in the data set on P. berghei (given orally, 4-day suppressive test) is given as “complete parasite clearance”. The “estimated ED50” value in the data set on P. berghei (oral, after three doses, P. berghei infected mice) is 4 mg/kg.
